SMILES strings stand for the structures. Substitutions are numbered along the chain they refer to.

We go through two compounds from publication PMC8225760, “Residue 6.43 defines receptor function in class F GPCRs” (Nature Communications, 2021).

Holding throughout (format): cell-based
The target of experiment [1] is T1, FZD6 (HiBiT-FZD6; FZD6-Nluc) (Homo sapiens, UniProt O60353).
T1 construct: full-length receptor; expressed in deltaSMO HEK293A cells; UniProt id given for the homology model
T1 sequence (O60353 19-706): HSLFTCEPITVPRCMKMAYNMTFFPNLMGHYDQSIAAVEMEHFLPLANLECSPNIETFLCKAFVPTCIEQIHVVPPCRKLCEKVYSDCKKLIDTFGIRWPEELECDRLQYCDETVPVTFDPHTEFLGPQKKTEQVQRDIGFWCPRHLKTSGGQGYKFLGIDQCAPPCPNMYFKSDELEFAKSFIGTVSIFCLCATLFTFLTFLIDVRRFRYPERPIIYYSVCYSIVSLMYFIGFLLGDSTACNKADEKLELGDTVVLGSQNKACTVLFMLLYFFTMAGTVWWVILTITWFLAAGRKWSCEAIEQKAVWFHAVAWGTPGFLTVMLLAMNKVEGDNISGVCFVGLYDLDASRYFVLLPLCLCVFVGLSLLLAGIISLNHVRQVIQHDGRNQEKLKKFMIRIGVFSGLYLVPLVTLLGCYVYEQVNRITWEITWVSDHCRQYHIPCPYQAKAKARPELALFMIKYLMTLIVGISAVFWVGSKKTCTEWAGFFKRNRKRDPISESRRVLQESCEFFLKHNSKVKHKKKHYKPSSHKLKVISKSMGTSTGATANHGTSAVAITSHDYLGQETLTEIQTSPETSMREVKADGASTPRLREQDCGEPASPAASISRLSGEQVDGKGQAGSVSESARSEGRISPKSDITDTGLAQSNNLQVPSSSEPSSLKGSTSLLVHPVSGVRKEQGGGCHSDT
Kind of experiment: NanoBiT/BRET saturation binding in live cells. Conditions: HBSS, 90 min, 37 °C; cell-surface receptor; upper 7TM site; labelled compound; error SD.

For experiment [2], the target named is T2, SMO (HiBiT-SMO; SMO-Nluc) (Mus musculus, UniProt P56726, F466P).
T2 construct: full-length receptor; C-terminal Nluc (SMO-Nluc) for miniGsi recruitment; expressed in deltaSMO HEK293A cells
The experiment can be described thus: NanoBiT/BRET saturation binding in live cells. Conditions: HBSS, 90 min, 37 °C; cell-surface receptor; labelled compound; error SD.

Experiment [3] has as its target T3, SMO (HiBiT-SMO; SMO-Nluc) (Mus musculus, UniProt P56726).
T3 construct: full-length receptor; C-terminal Nluc (SMO-Nluc) for miniGsi recruitment; expressed in deltaSMO HEK293A cells
Kind of experiment: NanoBiT/BRET saturation binding in live cells. Conditions: HBSS, 90 min, 37 °C; cell-surface receptor; monophasic, lower 7TM site; labelled compound; error SD.

In experiment [4] the target is T4, FZD6 (HiBiT-FZD6; FZD6-Nluc) (Homo sapiens, UniProt O60353, P427F).
T4 construct: full-length receptor; expressed in deltaSMO HEK293A cells; UniProt id given for the homology model
T4 sequence (O60353 19-706 P427F): T1 sequence (O60353 19-706) with P409F
Kind of experiment: NanoBiT/BRET saturation binding in live cells. The settings on record: HBSS, 90 min, 37 °C; cell-surface receptor; upper 7TM site; labelled compound; error SD.

Experiment [5] deals with T1, FZD6 (HiBiT-FZD6; FZD6-Nluc). Kind of experiment: BRET Venus-mGsi recruitment to receptor-Nluc in deltaSMO HEK293A cells. Conditions: agonist; bell-shaped concentration response; read 5 min after addition.

T3 sequence (P56726 33-793): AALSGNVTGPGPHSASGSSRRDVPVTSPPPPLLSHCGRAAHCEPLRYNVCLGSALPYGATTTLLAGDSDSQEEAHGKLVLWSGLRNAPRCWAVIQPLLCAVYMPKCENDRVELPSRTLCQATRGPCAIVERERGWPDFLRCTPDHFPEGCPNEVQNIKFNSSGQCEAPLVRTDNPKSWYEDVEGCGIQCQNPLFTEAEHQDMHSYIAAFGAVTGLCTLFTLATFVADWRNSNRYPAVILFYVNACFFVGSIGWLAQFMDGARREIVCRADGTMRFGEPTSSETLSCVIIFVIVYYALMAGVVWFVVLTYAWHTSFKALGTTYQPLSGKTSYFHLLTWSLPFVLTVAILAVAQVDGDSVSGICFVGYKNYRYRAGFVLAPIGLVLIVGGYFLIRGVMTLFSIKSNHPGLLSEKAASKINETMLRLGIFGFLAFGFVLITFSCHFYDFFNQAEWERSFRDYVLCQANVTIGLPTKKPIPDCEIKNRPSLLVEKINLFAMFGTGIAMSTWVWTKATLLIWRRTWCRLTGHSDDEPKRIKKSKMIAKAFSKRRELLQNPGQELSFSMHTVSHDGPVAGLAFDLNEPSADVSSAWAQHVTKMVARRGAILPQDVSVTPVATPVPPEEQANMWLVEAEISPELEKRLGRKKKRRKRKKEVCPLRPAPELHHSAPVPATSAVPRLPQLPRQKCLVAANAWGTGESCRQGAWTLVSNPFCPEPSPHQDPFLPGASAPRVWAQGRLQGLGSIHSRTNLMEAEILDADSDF
T2 sequence (P56726 33-793 F466P): as the sequence (P56726 33-793) above, with F434P counted along it

For the compound `CC1=C2CC3C(CC=C4C[C@@H](O)CCC43C)C2CCC12O[C@@H]1CC(C)CN(CCNC(=O)CCCCCNC(=O)CCC3=[N+]4C(=Cc5c(C)cc(C)n5[B-]4(F)F)C=C3)C1C2C` (some centres unmarked) [BODIPY-cyclopamine], the pKd is 6.45 ± 0.23 -log10 M in experiment [1], 5.44 ± 1.02 -log10 M in experiment [2], 6.87 ± 0.13 -log10 M in experiment [3] and 6.28 ± 0.20 -log10 M in experiment [4].
As to `CN[C@H]1CC[C@H](N(Cc2cccc(-c3ccncc3)c2)C(=O)c2sc3ccccc3c2Cl)CC1` [SAG1.3], in experiment [5], the “BRET Venus-mGsi recruitment to receptor-Nluc in deltaSMO HEK293A cells” value is “SAG1.3-induced mGsi recruitment to SMO, while that to FZD6 remained unaffected”.
